Measurements as given in patent US11555012B2 (Nimbus Artemis, Inc., priority 2018, dated 2023).

molecular target: ACL (Homo sapiens (Human), UniProt P53396); assay: ADP-Glo Assay; settings: not given
Sequence (P53396 other isoform, or with tags, fused parts or gaps isoform P53396-2): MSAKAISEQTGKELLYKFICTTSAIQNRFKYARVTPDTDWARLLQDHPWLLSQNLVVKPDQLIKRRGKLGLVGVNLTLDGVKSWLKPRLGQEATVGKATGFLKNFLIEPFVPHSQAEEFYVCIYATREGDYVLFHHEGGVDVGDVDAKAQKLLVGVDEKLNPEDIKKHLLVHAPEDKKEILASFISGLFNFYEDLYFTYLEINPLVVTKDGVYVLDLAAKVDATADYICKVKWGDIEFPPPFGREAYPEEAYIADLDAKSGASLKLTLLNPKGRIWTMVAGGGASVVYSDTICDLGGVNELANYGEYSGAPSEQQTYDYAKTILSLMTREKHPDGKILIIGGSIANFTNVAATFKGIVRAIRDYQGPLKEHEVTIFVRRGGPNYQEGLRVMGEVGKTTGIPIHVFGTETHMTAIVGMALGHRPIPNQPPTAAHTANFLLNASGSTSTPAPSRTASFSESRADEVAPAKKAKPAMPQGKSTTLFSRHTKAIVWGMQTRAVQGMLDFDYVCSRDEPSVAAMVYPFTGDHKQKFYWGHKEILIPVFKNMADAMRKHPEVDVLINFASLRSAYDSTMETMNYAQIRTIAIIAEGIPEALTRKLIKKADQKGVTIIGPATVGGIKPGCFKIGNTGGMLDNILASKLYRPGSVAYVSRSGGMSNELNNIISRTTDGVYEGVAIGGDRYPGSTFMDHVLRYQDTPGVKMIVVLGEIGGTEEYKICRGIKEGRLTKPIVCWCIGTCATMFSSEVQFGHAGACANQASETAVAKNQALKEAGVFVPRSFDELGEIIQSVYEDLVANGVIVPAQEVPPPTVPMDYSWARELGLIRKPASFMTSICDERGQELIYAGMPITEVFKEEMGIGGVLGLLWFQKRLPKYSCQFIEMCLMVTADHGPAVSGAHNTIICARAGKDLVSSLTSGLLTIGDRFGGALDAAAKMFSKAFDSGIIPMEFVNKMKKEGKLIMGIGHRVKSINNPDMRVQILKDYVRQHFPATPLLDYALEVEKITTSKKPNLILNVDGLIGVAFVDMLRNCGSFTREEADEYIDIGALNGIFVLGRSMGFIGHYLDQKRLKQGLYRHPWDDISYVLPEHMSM

Row | SMILES | IC50 [µM]
1 | O=S(=O)(Nc1ccc(F)cc1F)c1cc(Cl)cc(Cl)c1O [I-219, 3,5-dichloro-N-(2,4-difluorophenyl)-2-hydroxybenzene-1-sulfonamide] | 0.5 to 20
2 | O=S(=O)(Nc1cc(-c2ccccc2)ccc1F)c1cc(Cl)cc2ccoc12 [I-223, 5-chloro-N-[4-fluoro-[1,1-biphenyl]-3-yl]-1-benzofuran-7-sulfonamide] | 0.5 to 20
3 | O=S(=O)(Nc1cc(-c2ccccc2)ccc1O)c1cc(Cl)cc(Cl)c1 [I-224, 3,5-dichloro-N-(4-hydroxy-[1,1′-biphenyl]-3-yl)benzenesulfonamide] | 0.5 to 20
4 | O=C(O)c1ccc(-c2ccccc2)cc1NS(=O)(=O)c1ccccc1 [I-225, 3-(phenylsulfonamido)-[1,1′-biphenyl]-4-carboxylic Acid] | 0.5 to 20
5 | O=C(O)c1ccc(-c2ccccc2)cc1NS(=O)(=O)c1cc(Cl)cc(C(=O)N2CCC2)c1 [I-227, 3-((3-(azetidine-1-carbonyl)-5-chlorophenyl)sulfonamido)-[1,1′-biphenyl]-4-carboxylic Acid] | 0.5 to 20
6 | O=S(=O)(Nc1cc(-c2ccccc2)c(F)cc1F)c1ccccc1O [I-230, N-[4,6-difluoro-[1,1-biphenyl]-3-yl]-2-hydroxybenzene-1-sulfonamide] | 0.5 to 20
7 | CN(C)C(=O)c1cc(Cl)c(O)c(S(=O)(=O)Nc2cc(C3CC3)c(F)cc2F)c1 [I-231, 3-chloro-5-(N-(5-cyclopropyl-2,4-difluorophenyl)sulfamoyl)-4-hydroxy-N,N-dimethylbenzamide] | 0.5 to 20
8 | O=C(O)c1ccc(-c2ccccc2)cc1NS(=O)(=O)c1cc(Cl)cc(-c2nccs2)c1 [I-234, 3-((3-chloro-5-(thiazol-2-yl)phenyl)sulfonamido)-[1,1′-biphenyl]-4-carboxylic Acid] | 0.5 to 20
9 | O=C(O)COc1ccc(-c2ccccc2)cc1NS(=O)(=O)c1cc(F)cc(Cl)c1 [I-238, 2-((3-((3-chloro-5-fluorophenyl)sulfonamido)-[1,1′-biphenyl]-4-yl)oxy)acetic Acid] | 0.5 to 20
10 | O=C(O)COc1ccc(-c2ccccc2)cc1NS(=O)(=O)c1cc(Cl)cc(Cl)c1 [I-244, 2-[[3-(3,5-dichlorobenzenesulfonamido)-[1,1-biphenyl]-4-yl]oxy]acetic Acid] | 0.5 to 20
11 | NC(=O)Cc1ccc(-c2ccccc2)cc1NS(=O)(=O)c1cc(Cl)cc(Cl)c1 [I-245, 2-(3-((3,5-dichlorophenyl)sulfonamido)-[1,1′-biphenyl]-4-yl)acetamide] | 0.5 to 20
12 | O=S(=O)(Nc1cc(-c2ccccc2)c(F)cc1F)c1cc(Cl)cc(Br)c1 [I-246, 3-bromo-5-chloro-N-(4,6-difluoro-[1,1′-biphenyl]-3-yl)benzenesulfonamide] | 0.5 to 20
13 | O=C(O)c1ccc(-c2ccccc2)cc1NS(=O)(=O)c1cncc(Cl)c1 [I-247, 3-((5-chloropyridine)-3-sulfonamido)-[1,1′-biphenyl]-4-carboxylic Acid] | 0.5 to 20
14 | COC(=O)c1ncccc1S(=O)(=O)Nc1cc(-c2ccccc2)ccc1F [I-250] | 0.5 to 20
15 | N#Cc1cc(S(=O)(=O)Nc2cc(-c3ccccc3)ccc2F)ccc1Cl [I-251] | 0.5 to 20
16 | O=S(=O)(Nc1cc(-c2ccccc2)ccc1F)c1ccc(Cl)c(-c2nnn[nH]2)c1 [I-252] | 0.5 to 20
17 | O=c1[nH]c2cc(F)c(S(=O)(=O)Nc3cc(-c4ccccc4)ccc3F)cc2o1 [I-253] | 0.5 to 20
18 | CCS(=O)(=O)Nc1cc(OC)ccc1S(=O)(=O)Nc1cc(-c2ccccc2)ccc1F [I-254] | 0.5 to 20
19 | O=C1COc2cc(S(=O)(=O)Nc3cc(-c4ccccc4)ccc3F)c(Cl)cc2N1 [I-255] | 0.5 to 20
20 | O=C(O)c1cc(Cl)c(Cl)c(S(=O)(=O)Nc2cc(-c3ccccc3)ccc2F)c1 [I-256] | 0.5 to 20
21 | O=C(O)c1ccc(-c2ccccc2)cc1NS(=O)(=O)Cc1ccccc1 [I-257] | 0.5 to 20
22 | O=C(O)c1ccc(-c2ccccc2)cc1NS(=O)(=O)c1ccc2[nH]c(=O)[nH]c2c1 [I-258] | 0.5 to 20
23 | O=C(O)c1ccc(-c2ccccc2)cc1NS(=O)(=O)CCc1ccccc1 [I-259] | 0.5 to 20
24 | COc1ccc(-c2ccccc2)cc1NS(=O)(=O)c1cc(Cl)cc(Cl)c1NS(C)(=O)=O [I-263, 3,5-dichloro-2-methanesulfonamido-N-[4-methoxy-[1,1-biphenyl]-3-yl]benzene-1-sulfonamide] | 0.5 to 20

Row | SMILES | IC50 [µM]
25 | CC(C)(C)OC(=O)COc1ccc(-c2ccccc2)cc1NS(=O)(=O)c1cc(C(F)(F)F)cc(Cl)c1O [I-265, tert-butyl 2-([3-[3-chloro-2-hydroxy-5-(trifluoromethyl)benzenesulfonamido]-[1,1-biphenyl]-4-yl]oxy)acetate] | 0.5 to 20
26 | O=C(O)c1ccc(-c2ccccc2)cc1NCc1cc(Cl)cc(Cl)c1 [I-267, 3-((3,5-dichlorobenzyl)amino)-[1,1′-biphenyl]-4-carboxylic Acid] | 0.5 to 20
27 | O=C(c1cc(Cl)c(O)c(S(=O)(=O)Nc2ccccc2F)c1)N1CCC1 [I-268, 5-(azetidine-1-carbonyl)-3-chloro-N-(2-fluorophenyl)-2-hydroxybenzene-1-sulfonamide] | 0.5 to 20
28 | O=C(O)COc1ccc(-c2ccccc2)cc1NS(=O)(=O)c1cc(C(=O)N2CCC2)cc(Cl)c1O [I-270, 2-([3-[5-(azetidine-1-carbonyl)-3-chloro-2-hydroxybenzenesulfonamido]-[1,1-biphenyl]-4-yl]oxy)acetic Acid] | 0.5 to 20
29 | CN(C)C(=O)c1cc(Cl)c(O)c(S(=O)(=O)Nc2cc(-c3ccccc3)ccc2C(=O)O)c1 [I-271, 3-((3-chloro-5-(dimethylcarbamoyl)-2-hydroxyphenyl)sulfonamido)-[1,1′-biphenyl]-4-carboxylic Acid] | 0.5 to 20
30 | O=C(O)c1ccc(-c2ccccc2)cc1NS(=O)(=O)c1cccc(Cl)c1 [I-273, 3-((3-chlorophenyl)sulfonamido)-[1,1′-biphenyl]-4-carboxylic acid] | 0.5 to 20
31 | O=C(O)c1ccc(-c2ccccc2)cc1NS(=O)(=O)CC1CCCC1 [I-274] | 0.5 to 20
32 | COc1ccc(-c2ccccc2)cc1NS(=O)(=O)c1cc(C(=O)N2CCNCC2)cc(Cl)c1O [I-277, 3-chloro-2-hydroxy-N-[4-methoxy-[1,1-biphenyl]-3-yl]-5-(piperazine-1-carbonyl)benzene-1-sulfonamide] | 0.5 to 20
33 | O=C(O)c1cc(-c2ccccc2)ccc1NS(=O)(=O)c1cc(Cl)cc(Cl)c1 [I-278, 4-((3,5-dichlorophenyl)sulfonamido)-[1,1′-biphenyl]-3-carboxylic acid] | 0.5 to 20
34 | CC(=O)N1CCCN(c2ccc(-c3ccccc3)cc2NS(=O)(=O)c2cc(Cl)cc(Cl)c2O)CC1 [I-279, N-[4-(4-acetyl-1,4-diazepan-1-yl)-[1,1-biphenyl]-3-yl]-3,5-dichloro-2-hydroxybenzene-1-sulfonamide] | 0.5 to 20
35 | O=C(Cc1cc(Cl)cc(Cl)c1)Nc1cc(-c2ccccc2)ccc1C(=O)O [I-280, 3-(2-(3,5-dichlorophenyl)acetamido)-[1,1′-biphenyl]-4-carboxylic Acid] | 0.5 to 20
36 | O=C(O)c1cc(Cl)c(O)c(S(=O)(=O)Nc2ccccc2F)c1 [I-283, 3-chloro-5-[(2-fluorophenyl)sulfamoyl]-4-hydroxybenzoic acid] | 0.5 to 20
37 | O=C(O)c1ccc(-c2ccccc2)cc1NS(=O)(=O)c1ccc(Cl)c(Cl)c1 [I-284, 3-((3,4-dichlorophenyl)sulfonamido)-[1,1′-biphenyl]-4-carboxylic acid] | 0.5 to 20
38 | O=S(=O)(Nc1ccccc1Oc1ccccc1)c1cc(Cl)cc(Cl)c1O [I-285, 3,5-dichloro-2-hydroxy-N-(2-phenoxyphenyl)benzene-1-sulfonamide] | 0.5 to 20
39 | O=C(O)c1ccc(-c2ccccc2)cc1NS(=O)(=O)c1cc(Cl)ccc1Cl [I-288, 3-((2,5-dichlorophenyl)sulfonamido)-[1,1′-biphenyl]-4-carboxylic acid] | 0.5 to 20
40 | O=S(=O)(Nc1cc(-n2nccn2)c(F)cc1F)c1cc(Cl)cc(Cl)c1O [I-290, 3,5-dichloro-N-[2,4-difluoro-5-(2H-1,2,3-triazol-2-yl)phenyl]-2-hydroxybenzene-1-sulfonamide] | 0.5 to 20
41 | O=C(O)CCCOc1ccc(-c2ccccc2)cc1NS(=O)(=O)c1cc(Cl)cc(Cl)c1 [I-291, 4-[[3-(3,5-dichlorobenzenesulfonamido)-[1,1-biphenyl]-4-yl]oxy]butanoic Acid] | 0.5 to 20
42 | O=C(O)c1ccc(-c2ccccc2)cc1NS(=O)(=O)c1cccc(C(F)(F)F)c1 [I-292, 3-((3-(trifluoromethyl)phenyl)sulfonamido)-[1,1′-biphenyl]-4-carboxylic acid] | 0.5 to 20
43 | O=C(O)c1ccc(-c2ccccc2)cc1NS(=O)(=O)c1cccnc1Cl [I-300] | 0.5 to 20
44 | O=C(O)c1ccc(-c2ccccc2)cc1NS(=O)(=O)c1ccc2[nH]ncc2c1 [I-301, 3-(1H-indazole-5-sulfonamido)-[1,1′-biphenyl]-4-carboxylic Acid] | 0.5 to 20
45 | O=C(O)c1cc(Br)cc(S(=O)(=O)Nc2cc(-c3ccccc3)ccc2C(=O)O)c1 [I-303, 3-((3-bromo-5-carboxyphenyl)sulfonamido)-[1,1′-biphenyl]-4-carboxylic Acid] | 0.5 to 20
46 | O=C(O)c1ccc(-c2ccccc2)cc1NS(=O)(=O)CC1CCC1 [I-307, 3-((cyclobutylmethyl)sulfonamido)-[1,1′-biphenyl]-4-carboxylic Acid] | 0.5 to 20
47 | O=C(O)COc1c(Cl)cc(Cl)cc1C(=O)Nc1cc(-c2ccccc2)ccc1C(=O)O [I-308, 3-(2-(carboxymethoxy)-3,5-dichlorobenzamido)-[1,1′-biphenyl]-4-carboxylic Acid] | 0.5 to 20
48 | O=C(NCc1cc(-c2ccccc2)ccc1C(=O)O)c1cc(Cl)cc(Cl)c1 [I-309, 3-((3,5-dichlorobenzamido)methyl)-[1,1′-biphenyl]-4-carboxylic Acid] | 0.5 to 20

same assay, conditions: read-out: ACL-ADP-Glo (IC50); 3 nM ACL, 15 μM ATP, 3 μM CoA, 300 μM Citrate

Row | SMILES | IC50 [µM]
49 | O=C(O)Cc1ccc(-c2ccccc2)cc1NS(=O)(=O)c1cc(Cl)cc(Cl)c1 [I-228, 2-(3-((3,5-dichlorophenyl)sulfonamido)-[1,1′-biphenyl]-4-yl)acetic Acid] | 0.5 to 20
50 | O=C(c1cc(Cl)c(O)c(S(=O)(=O)Nc2cc(-c3ccccc3)ccn2)c1)N1CCC1 [I-237] | 0.5 to 20
